According to patent publication US20050153894A1, “p21 peptides” (Cyclacel Limited, priority 1999, published 2005):
“Also recorded” adds a separate entry of the source. Read-outs that look alike come from different tables or passages of the source. Square brackets hold non-standard residues; d marks the D form. βLeu = beta-Leu

Key:
[1] = biological target: CDK2/cyclin A (Homo sapiens, UniProt P20248); experiment: Functional kinase assay, CDK2/cyclin A phosphorylation of GST-pRb(773-928); format: biochemical; conditions: read-out: Inhibitory activity IC50 ± SD, Functional kinase assay
Procedure: Reactions were stopped on ice, followed by addition of 5 μL/well of glutathione-Sepharose 4B (Amersham Biosciences) and further incubation with shaking for 30 min at room temperature. The mixtures were then filtered on Whatman GF/C filterplates and washed 4 times with 0.2 mL/well of 50 mM HEPES containing 1 mM ATP. Plates were dried, sealed, and scintillant (Microscint 40) was added. Incorporated radioactivity was measured using a scintillation counter (TopCount, Packard Instruments, Pangbourne, Berks, UK). Half-maximal inhibition (IC50) was calculated from dose-response curves.

[2] = biological target: T1, CDK2/Cyclin E (Homo sapiens, UniProt P24864); experiment: CDK2/Cyclin E kinase assay, phosphorylation of GST-Rb; format: biochemical
T1 construct: 6xHis; made in house; host or cells: Sf9 insect cells (baculovirus co-expression)

[3] = biological target: T2, CDK1/Cyclin B (Homo sapiens, UniProt P14635); experiment: CDK1/Cyclin B kinase assay, phosphorylation of Histone 1; format: biochemical; conditions: for IC50: CDK1-Cyclin B induced phosphorylation of Histone 1
T2 construct: 6xHis; made in house; host or cells: Sf9 insect cells (baculovirus co-expression)
Procedure: (§1) Histone 1 phosphorylation induced by CDK2/Cyclin E and CDK1/Cyclin B was measured using similar method. The concentration of Histone 1 in the kinase reaction was 1 mg/ml (unless different stated).

[4] = biological target: T2, CDK1/Cyclin B; experiment: CDK1/Cyclin B kinase assay, phosphorylation of GST-Rb; format: biochemical; conditions: CDK1-Cyclin B induced phosphorylation of GST-Rb
Procedure: The phosphorylation reaction mixture (total volume 40 μl) consisted of 50 mM HEPES pH 7.4, 20 mM MgCl2, 5 mM EGTA, 2 mM DTT, 20 mM β-glycerophosphate, 2 mM NaF, 1 mM Na3VO4, Protease Inhibitors Cocktail (Sigma, see above), BSA 0.5 mg/ml, 1 μg purified enzyme complex, 10 μl of GST-Rb-Sepharose beads, 100 μM ATP, 0.2 μCi ^32P-ATP. The reaction was carried out for 30 min at 30° C. at constant shaking. At the end of this period 100 μl of 50 mM HEPES, pH 7.4 and 1 mM ATP were added to each well and the total volume was transferred onto GFC filtered plate. The plate was washed 5 times with 200 μl of 50 mM HEPES, pH 7.4 and 1 mM ATP. To each well were added 50 μl scintillant liquid and the radioactivity of the samples was measured on Scintilation counter (Topcount, HP). The IC50 values of different peptides were calculated using GraFit software.

[5] = biological target: T3, CDK4/Cyclin D1 (Homo sapiens, UniProt P24385); experiment: CDK4/Cyclin D1 kinase assay, phosphorylation of GST-Rb; format: biochemical
T3 construct: made in house; host or cells: CDK4: Sf9 insect cells (baculovirus)

[6] = biological target: T4, Cyclin D1 (Homo sapiens, UniProt P24385); experiment: Competitive Cyclin D1 binding assay (ELISA), immobilised biotinylated p21 (149-159)
T4 construct: made in house
Description: The amount of bound Cyclin D1/Cyclin A was immunodetected and quantified by Turbo-ELISA reagent (PIERCE).
The next important question was if these peptides share the same kinase inhibitory mechanism (bind to the same Cyclin docking site).

[7] = biological target: T5, CDK4 (Homo sapiens, UniProt P11802); experiment: Pull-down with immobilised biotinylated peptide: CDK4; format: binding; conditions: in the absence of cyclin partner
T5 construct: 6xHis; made in house; host or cells: Sf9 insect cells (baculovirus)
Description: (§2) A biotinylated version of p21(149-159) was used in “pull-down” experiments with the purified CDK sub-units, CDK2, CDK4, cyclin A, cyclin D1, and with the complexes of CDK2/cyclin A or CDK4/cyclin D1 kinases, in order to determine the binding partner of the peptide. The biotinylated peptide was pre-immobilised on streptavidin-agarose beads. […] Both CDK2 and CDK4 were “pulled down”, however, with biotinylated p21(149-159)-streptavidin-agarose beads when they were in a complex with cyclin A or cyclin D1, respectively. Similar results were obtained with cyclin E and CDK2/cyclin E complex. […] Such a method may be utilised either alone or together with a candidate substance to identify cyclin binding moities and/or inhibitors of cyclin-CDK interaction.

[8] = biological target: T4, Cyclin D1; experiment: Pull-down with immobilised biotinylated peptide: cyclin D1; format: binding; conditions: biotinylated peptide on streptavidin-agarose beads
Description: as §2

[9] = biological target: Cyclin A (Homo sapiens, UniProt P20248); experiment: Pull-down with immobilised biotinylated peptide: cyclin A; format: binding; conditions: biotinylated peptide on streptavidin-agarose beads
Description: as §2

[10] = biological target: CDK2 (Homo sapiens, UniProt P24941); experiment: Pull-down with immobilised biotinylated peptide: CDK2; format: binding; conditions: in the absence of cyclin partner
Description: as §2

[11] = biological target: T1, CDK2/Cyclin E; experiment: CDK2/Cyclin E kinase assay, phosphorylation of Histone 1; format: biochemical
Procedure: as §1

[12] = biological target: cyclin B (Homo sapiens, UniProt P14635); experiment: Pull-down with immobilised peptide: cyclin B; format: binding
[13] = biological target: T3, CDK4/Cyclin D1; conditions: WO97/42222 and Ball et al., cited from earlier work
[14] = biological target: T1, CDK2/Cyclin E; conditions: GST-Rb phosphorylation; Ball et al.; cited from earlier work
[15] = GST-pRb substrate, [ATP] = 100 μM

T2 sequence (P14635 whole entry): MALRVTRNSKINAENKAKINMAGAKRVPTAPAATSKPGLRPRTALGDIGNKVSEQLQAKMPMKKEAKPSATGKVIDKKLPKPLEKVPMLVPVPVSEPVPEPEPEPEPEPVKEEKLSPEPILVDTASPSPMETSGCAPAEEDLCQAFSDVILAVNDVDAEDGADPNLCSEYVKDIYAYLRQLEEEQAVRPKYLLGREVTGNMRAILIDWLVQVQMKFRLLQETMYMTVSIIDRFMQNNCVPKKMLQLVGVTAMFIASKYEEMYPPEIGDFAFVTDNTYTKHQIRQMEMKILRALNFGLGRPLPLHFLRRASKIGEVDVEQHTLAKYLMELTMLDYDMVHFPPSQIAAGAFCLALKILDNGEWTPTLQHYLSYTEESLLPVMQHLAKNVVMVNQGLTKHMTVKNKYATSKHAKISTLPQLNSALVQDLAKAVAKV
T2 sequence (P06493 whole entry partner): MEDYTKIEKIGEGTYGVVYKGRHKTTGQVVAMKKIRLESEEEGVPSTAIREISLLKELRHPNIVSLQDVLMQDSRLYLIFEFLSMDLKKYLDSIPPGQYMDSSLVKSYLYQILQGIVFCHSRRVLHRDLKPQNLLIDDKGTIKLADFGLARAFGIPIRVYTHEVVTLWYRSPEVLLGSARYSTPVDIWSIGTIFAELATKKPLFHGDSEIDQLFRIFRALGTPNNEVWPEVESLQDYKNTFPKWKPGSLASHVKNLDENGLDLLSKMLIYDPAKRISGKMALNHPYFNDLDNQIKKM
T4 sequence (P24385 whole entry): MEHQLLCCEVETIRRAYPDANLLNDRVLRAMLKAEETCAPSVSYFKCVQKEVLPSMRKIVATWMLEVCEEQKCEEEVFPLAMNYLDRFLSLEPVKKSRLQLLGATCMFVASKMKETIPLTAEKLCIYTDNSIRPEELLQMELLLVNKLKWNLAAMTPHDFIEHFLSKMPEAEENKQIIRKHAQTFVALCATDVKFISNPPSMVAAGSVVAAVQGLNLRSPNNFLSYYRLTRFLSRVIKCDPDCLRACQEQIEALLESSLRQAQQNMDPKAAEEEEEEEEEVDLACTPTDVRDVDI
T3 sequence (P24385 whole entry): as above
T3 sequence (P11802 whole entry partner): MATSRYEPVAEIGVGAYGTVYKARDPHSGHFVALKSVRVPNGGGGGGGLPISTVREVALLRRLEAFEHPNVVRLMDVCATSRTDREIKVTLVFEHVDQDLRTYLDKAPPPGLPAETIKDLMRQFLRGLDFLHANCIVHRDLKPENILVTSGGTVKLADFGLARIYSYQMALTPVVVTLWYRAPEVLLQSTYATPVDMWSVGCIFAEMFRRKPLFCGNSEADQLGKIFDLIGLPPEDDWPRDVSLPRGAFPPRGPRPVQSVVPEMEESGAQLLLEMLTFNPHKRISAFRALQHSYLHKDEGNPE
T5 sequence (P11802 whole entry, species assumed): as the sequence (P11802 whole entry partner) above
Cyclin A, sequence (P20248 whole entry): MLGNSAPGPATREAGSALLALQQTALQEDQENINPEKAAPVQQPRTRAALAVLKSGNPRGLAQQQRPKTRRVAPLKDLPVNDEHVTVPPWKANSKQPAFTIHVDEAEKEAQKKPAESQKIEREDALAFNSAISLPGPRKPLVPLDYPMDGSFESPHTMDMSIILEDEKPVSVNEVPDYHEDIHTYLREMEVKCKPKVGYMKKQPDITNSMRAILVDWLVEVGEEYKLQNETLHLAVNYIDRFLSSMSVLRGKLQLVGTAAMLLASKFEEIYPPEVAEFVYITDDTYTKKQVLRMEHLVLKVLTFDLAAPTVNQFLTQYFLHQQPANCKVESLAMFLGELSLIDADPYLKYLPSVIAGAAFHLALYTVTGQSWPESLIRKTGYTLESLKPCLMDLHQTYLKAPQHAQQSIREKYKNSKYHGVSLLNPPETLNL
cyclin B, sequence (P14635 whole entry): as the sequence (P14635 whole entry) above

**Q.** Which IC50 [1] does the source give for `CC(=O)N[C@@H](CC(C)C)C(=O)N[C@@H](CC(N)=O)C(=O)N[C@@H](Cc1ccc(F)cc1)C(N)=O` [VI.42] here?
**A.** 139 ± 10 µM

**Q.** For `CC[C@H](C)[C@H](NC(=O)[C@H](CC(C)C)NC(=O)[C@H](CCCNC(=N)N)NC(=O)[C@H](CCCNC(=N)N)NC(=O)[C@H](CCCCN)NC(=O)[C@H](C)NC(=O)[C@H](Cc1c[nH]cn1)NC(=O)[C@H](Cc1ccc(O)cc1)NC(=O)[C@H](Cc1ccccc1)NC(=O)[C@@H](N)CC(=O)O)C(=O)N[C@@H](Cc1ccccc1)C(=O)N[C@@H](CO)C(N)=O` [p21(149-160)Ser153Ala], which IC50 ([2]; read-out: IC50, CDK2-Cyclin E induced phosphorylation of GST-Rb) is on record?
**A.** 0.04 µM

**Q.** What about the IC50 [3] of the same compound?
**A.** > 200 µM

**Q.** What about the IC50 [4] of the same compound?
**A.** > 200 µM

**Q.** What does the source list for `CC(C)C[C@H](NC(=O)[C@H](CC(=O)O)NC(=O)[C@H](CC(C)C)NC(=O)[C@H](CCCNC(=N)N)NC(=O)[C@H](CCCNC(=N)N)NC(=O)[C@H](CCCCN)NC(=O)[C@@H](NC(=O)[C@@H]1CCCN1)C(C)C)C(N)=O` [reference compound]?
**A.** Kinase Inhibition Cyclin E/CDK2 % Inhibition ([2]; phosphorylation of pRb): 74%; IC50 ([2]; phosphorylation of pRb, read-out: Kinase Inhibition Cyclin E/CDK2 IC50): 2.1 µM; inhibition of CDK4/Cyclin D1 phosphorylation of GST-Rb, in words [5]: not able to inhibit; Kinase Inhibition Cyclin D1/CDK4 % Inhibition ([5]; phosphorylation of pRb): 58%; IC50 ([5]; phosphorylation of pRb, read-out: Kinase Inhibition Cyclin D1/CDK4 IC50): 99 µM; competition with Biotin-DFYHSKRRLIF for binding to Cyclin D1, in words [6]: not able; IC50 ([6]; immobilised p21 (149-159) peptide): > 100 µM

**Q.** Which “binding to CDK4 in pull-down” value [7] does the source give for H-DFYHSKRRLIF-NH2 [p21(149-159)] here?
**A.** failed to interact

**Q.** What about the “binding to cyclin D1 in pull-down” value [8] of the same compound?
**A.** bound

**Q.** And the IC50 [4]?
**A.** > 200 µM

**Q.** What about the “binding to cyclin A in pull-down” value [9] of the same compound?
**A.** bound

**Q.** And the “binding to CDK2 in pull-down” value [10]?
**A.** failed to interact

**Q.** Which “inhibition of CDK2/Cyclin E phosphorylation of GST-Rb, in words” value [2] does the source give for H-DFYHSKRRLIFS-NH2 [p21(149-160)] here?
**A.** specifically inhibit

**Q.** And the “inhibition of CDK1/cyclin B phosphorylation of histone H1, in words” value [3]?
**A.** did not have any significant effect

**Q.** What about the IC50 [3] of the same compound?
**A.** > 200 µM

**Q.** What about the “inhibition of CDK4/Cyclin D1 phosphorylation of GST-Rb, in words” value [5] of the same compound?
**A.** very similar activity

**Q.** And the inhibition at 100 µM [5, 15]?
**A.** 70%

**Q.** What about the “inhibition of CDK2/Cyclin E phosphorylation of Histone 1, in words” value [11] of the same compound?
**A.** completely inactive; also recorded: did not inhibit

**Q.** What about the “inhibition of CDK2/Cyclin E phosphorylation of Histone 1, in words” value ([11]; listed as p21 (149-160)) of the same compound?
**A.** do not inhibit

**Q.** And the “pull-down of cyclin B (monomer or complex with CDK1)” value [12]?
**A.** unable to precipitate

**Q.** And the IC50 [4]?
**A.** > 200 µM

**Q.** What does the source list for KRRLIFSK [reference compound]?
**A.** Kinase Inhibition Cyclin E/CDK2 % Inhibition [2, 15]: 60%; Kinase Inhibition Cyclin E/CDK2 IC30 [2, 15]: >200 µM; Kinase Inhibition Cyclin D1/CDK4 % Inhibition [5, 15]: 20%; concentration for inhibitory activity against cyclin D1-CDK4 relative to parent p21(141-160) [13]: 1000 times

**Q.** With VI.38 (Ac-RR[βLeu]F-NH2) as the compound, how does the IC50 ([1]; recombinant human CDK2/cyclin A, GST-pRb(773-928) substrate, 30 min at 30° C) read?
**A.** 216 µM

**Q.** Which “activity against cyclinD1/CDK4 relative to cyclinE/CDK2” value [14] does the source give for “p21(141-160): 20-residue peptide derived from the C-terminus of p21^WAF1 (residues 141-160), Ball et al.” here?
**A.** 40 times

**Q.** What about the IC50 ([13]; Asp149Ala effect said not reproducible, read-out: IC50, cyclin D1-CDK4 inhibition) of the same compound?
**A.** 0.1 µM
